Data: the supplement of paper PMC10307832

Experiments:
Assay in all cases: relative viability (nuclei count vs DMSO), 5 days (fraction); higher = more cells survive
Metformin + Foretinib = compound: CN(C)C(=N)NC(=N)N [Metformin] + COc1cc2c(Oc3ccc(NC(=O)C4(C(=O)Nc5ccc(F)cc5)CC4)cc3F)ccnc2cc1OCCCN1CCOCC1 [Foretinib] (partner 0.25 µM)
How it was run: (§1)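 Each reported value is a median over duplicate plates. It expresses relative viability: treated-well nuclei count divided by vehicle-well nuclei count. Lung cancer cell lines in 1536-well plates were dosed by pin tool a day after seeding, alone with one drug or with a fixed anchor-drug dose plus five library-drug doses (not always all listed) in √10 steps, and nuclei were counted after 5 days.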

Metformin + Vorinostat = compound: CN(C)C(=N)NC(=N)N [Metformin] + O=C(CCCCCCC(=O)Nc1ccccc1)NO [Vorinostat] (partner 1 µM)
How it was run: as §1

Apatinib + Trametinib = compound: N#CC1(c2ccc(NC(=O)c3cccnc3NCc3ccncc3)cc2)CCCC1 [Apatinib] + CC(=O)Nc1cccc(-n2c(=O)n(C3CC3)c(=O)c3c(Nc4ccc(I)cc4F)n(C)c(=O)c(C)c32)c1 [Trametinib] (partner 0.02 µM)
How it was run: as §1

Apatinib + Navitoclax = compound: N#CC1(c2ccc(NC(=O)c3cccnc3NCc3ccncc3)cc2)CCCC1 [Apatinib] + CC1(C)CCC(c2ccc(Cl)cc2)=C(CN2CCN(c3ccc(C(=O)NS(=O)(=O)c4ccc(N[C@H](CCN5CCOCC5)CSc5ccccc5)c(S(=O)(=O)C(F)(F)F)c4)cc3)CC2)C1 [Navitoclax] (partner 0.5 µM)
How it was run: as §1

| Cell Line | relative viability (Metformin + Foretinib; first compound 10 µM) | relative viability (Metformin + Foretinib; first compound 31.62 µM) | relative viability (Metformin + Foretinib; first compound 100 µM) | relative viability (Metformin + Foretinib; first compound 316.23 µM) | relative viability (Metformin + Foretinib; first compound 1000 µM) | relative viability (Metformin + Vorinostat; first compound 10 µM) | relative viability (Metformin + Vorinostat; first compound 31.62 µM) | relative viability (Metformin + Vorinostat; first compound 100 µM) | relative viability (Metformin + Vorinostat; first compound 316.23 µM) | relative viability (Metformin + Vorinostat; first compound 1000 µM) | relative viability (Apatinib + Trametinib; first compound 0.08 µM) | relative viability (Apatinib + Trametinib; first compound 0.253 µM) | relative viability (Apatinib + Trametinib; first compound 0.8 µM) | relative viability (Apatinib + Trametinib; first compound 2.53 µM) | relative viability (Apatinib + Trametinib; first compound 8 µM) | relative viability (Apatinib + Navitoclax; first compound 0.08 µM) | relative viability (Apatinib + Navitoclax; first compound 0.253 µM) | relative viability (Apatinib + Navitoclax; first compound 0.8 µM) | relative viability (Apatinib + Navitoclax; first compound 2.53 µM) | relative viability (Apatinib + Navitoclax; first compound 8 µM) |
| --- | --- | --- | --- | --- | --- | --- | --- | --- | --- | --- | --- | --- | --- | --- | --- | --- | --- | --- | --- | --- |
| PC-14 | 0.795 | 1.08 | 0.879 | 0.932 | 1 | 0.618 | 0.598 | 0.567 | 0.415 | 0.533 | 0.754 | 0.897 | 0.563 | 0.636 | 0.388 | 1.04 | 0.968 | 0.967 | 0.986 | 0.937 |
| HCC-78 | 0.752 | 0.674 | 0.894 | 0.662 | 0.79 |  | 0.479 | 0.559 | 0.516 | 0.417 | 0.717 | 0.683 | 0.781 | 0.651 | 0.61 | 0.884 | 0.631 | 0.821 | 0.58 | 0.648 |
| NCI-H322M | 1.14 | 1.03 | 1.05 | 1.1 | 0.935 | 0.946 | 0.861 | 0.945 | 0.865 | 0.702 | 0.506 | 0.651 | 0.494 | 0.545 | 0.425 | 1.28 | 1.11 | 1.25 | 1.32 | 1.12 |
| NCI-H2023 | 0.99 | 0.828 | 0.854 | 0.909 | 0.47 | 0.292 | 0.712 | 0.354 | 0.496 | 0.38 | 0.635 | 0.647 | 0.492 | 0.489 | 0.399 | 0.988 | 1.01 | 0.954 | 0.925 | 0.895 |
| NCI-H1651 | 1.01 | 0.765 | 1.03 | 0.802 | 1.02 | 0.505 | 0.652 | 0.568 | 0.614 | 0.608 | 0.84 | 0.874 | 0.821 | 0.75 | 0.684 | 1.02 | 1.22 | 0.97 | 0.928 | 0.867 |
| HCC-15 |  | 1.06 | 1.1 | 0.905 | 0.911 | 0.84 | 0.849 | 0.959 | 0.77 | 0.95 | 0.393 | 0.295 | 0.327 | 0.367 | 0.308 | 0.733 | 0.718 | 0.681 | 0.608 | 0.653 |
| NCI-H3122 | 0.946 | 0.951 | 0.944 | 0.806 | 0.919 | 0.459 | 0.942 | 0.87 | 0.807 | 0.775 | 0.251 | 0.234 | 0.247 | 0.181 | 0.176 | 1.07 | 0.965 | 1.01 | 1.08 | 1.04 |
| LOU-NH91 | 1.03 | 1.02 | 1.03 | 0.972 | 1.06 | 0.86 | 0.852 | 0.839 | 0.925 | 0.833 | 0.826 | 0.745 | 0.716 | 0.717 | 0.729 | 0.692 | 0.744 | 0.517 | 0.565 | 0.58 |
| LXF-289 | 0.873 | 0.918 | 0.879 | 0.916 | 0.912 | 0.65 | 0.661 | 0.712 | 0.66 | 0.729 | 0.667 | 0.705 | 0.638 | 0.608 | 0.56 | 0.948 | 0.925 | 0.95 | 0.82 | 0.882 |
| NCI-H650 | 1.18 | 1.31 | 1.23 | 1.24 | 1.18 | 0.425 | 0.413 | 0.405 | 0.556 | 0.533 | 0.98 | 0.918 | 1.02 | 0.963 | 1.02 |  |  |  |  |  |
| NCI-H1975 | 1.16 | 1.1 | 1.08 | 1.06 | 1.21 | 0.688 | 0.738 | 0.705 | 0.645 | 0.729 | 0.352 | 0.3 | 0.417 | 0.424 | 0.36 | 1.19 | 1.15 | 1.04 | 0.869 | 0.852 |
| ChaGo-K-1 | 0.924 | 1.07 | 0.959 | 0.864 | 0.962 | 0.663 | 0.777 | 0.751 | 0.667 | 0.723 | 0.902 | 0.93 | 0.862 | 0.837 | 0.691 |  | 1.4 | 0.971 | 0.888 | 0.993 |
| COR-L 105 | 1.23 | 1.38 | 1.23 | 1.14 | 0.791 | 0.795 | 0.807 | 0.895 | 0.848 | 0.495 | 0.476 | 0.418 | 0.371 | 0.436 | 0.431 | 0.665 | 1.03 | 0.695 | 0.841 | 0.636 |
| A-427 | 1.12 | 1.2 | 0.954 | 0.981 | 1.23 | 0.848 | 0.863 | 0.827 | 0.819 | 0.776 | 0.832 | 0.741 | 0.726 | 0.737 | 0.521 | 0.929 | 0.911 | 0.934 | 0.853 | 0.478 |
| NCI-H2087 |  | 0.966 | 1.12 | 0.891 | 1.06 | 0.595 | 0.657 | 0.637 | 0.567 | 0.671 | 0.188 | 0.169 | 0.205 | 0.195 | 0.191 | 1.06 | 1.05 | 0.847 | 0.963 | 0.782 |
| NCI-H358 | 0.726 | 0.723 | 0.658 | 0.732 | 0.813 | 0.546 | 0.584 | 0.577 | 0.578 | 0.525 | 0.144 | 0.12 | 0.179 | 0.159 | 0.131 |  |  |  |  |  |
